In patent US20260041747A1, “T CELL EPITOPES ASSOCIATED WITH TYPE 1 DIABETES” (Repertoire Immune Medicines, Inc., priority 2022, published 2026):

Legend:
[1] = tested on: PBMC-derived CD8+ T cells from T1D patients; experiment: Binding of HLA-A*02:01 barcoded pMHC tetramer library to PBMC-derived CD8+ T cells of T1D patients and healthy donors; set-up: species or system human; details: for Normalized T1D prevalence: average number of times the epitope in the pMHC tetramer library was bound by cognate TCR in the T1D cohort, 8 T1D patients, 1 nM per tetramer; for % Presence in T1D samples: percentage of T1D samples in which the epitope response was observed
Description: This example describes assessment of peptide binding to peripheral T cells from 8 short clinical duration T1D patients and 21 healthy donors who are HLA-matched without a history of diabetes, thereby to identify T1D-associated, HLA-A*02:01-restricted T cell epitopes.
Briefly, in the high-throughput screen described in Example 1, a library of HLA-A*02:01 oligo-barcoded pMHC tetramers was created as described in Francis et al., (2022) Sci Immunol 21:eabk3070. This tetramer library was composed of individual pMHCs representing hundreds of different epitopes identified in Example 1. CD8+ T cells were derived from frozen peripheral blood mononuclear cells (PBMCs) of human donors. CD8+ T cells were enriched via magnetic-activated cell separation from thawed PBMCs via commercially available negative enrichment kits (Miltenyi). Resulting enriched CD8+ T cells were counted and a standard input of 1 million CD8+ T cells per subject were then stained with tetramer libraries at final concentration of 1 nM per pMHC tetramer, in the presence of 2 mg/mL salmon sperm DNA in PBS with 0.5% BSA solution for 20 min. Stained cells were barcoded by commercially available anti-TCR antibody-derived tags (ADT, clone IP26, Biolegend). Tetramer bound cells were then labeled with phycoerythrin (PE) conjugated anti-DKDDDDK-Flag antibody (Biolegend) followed by dead cell discrimination using 7-amino-actinomycin D (7-AAD). Live, tetramer positive cells were sorted using a Sony MA900 Sorter. Following sorting, tetramer positive cells were single-cell sequenced using commercially available systems and protocols from 10× Genomics. Post-sequencing cells were demultiplexed and passed through standard quality control workflows (removal of duplicates, damaged cells, empty droplets, etc.) as described in Francis et al., (2022) Sci Immunol 21:eabk3070. Demultiplexed, tetramer positive cells were scored for pMHC-TCR interactions as described in Francis et al., (2022) Sci Immunol 21:eabk3070. Non-control pMHC-TCR putative binders passing quality control filters and scoring were used for analysis. The resulting pMHC-TCR matrix reactivity map was analyzed by abundance for “normalized T1D prevalence”, “relative enrichment”, and “% presence in T1D samples.” Normalized prevalence was defined as the average number of times an epitope in the pMHC tetramer library was bound by cognate TCR in the T1D cohort. […] Finally, for an epitope to be considered of value, it must pass prevalence and enrichment thresholds and have cognate T cells present in at least 75 percent of T1D subjects.

[2] = tested on: recombinant TCRs (rTCRs); experiment: Activation (CD69+) of J76-CD8-NFAT-GFP cells expressing recombinant TCRs by peptide-loaded HLA-A*02:01+ T2 cells; format: cell-based, human; details: 50 μM peptide, T2 cells 1:1, 16 hours
Description: This example describes functional validation of the T cell epitopes described in Examples 2 and 3, and their cognate TCRs, by assessing the ability of certain T cell epitopes, when presented by APCs that express HLA-A*02:01, to activate an immortalized T cell line expressing recombinant TCRs sequenced from the T cells of T1D patients and healthy donors. […] The relevance of certain identified T1D associated epitopes was evidenced by binding and activation of cognate TCRs in primary T cells or recombinant T cell lines.
(§1) Briefly, native paired alpha and beta TCR sequences identified from human tissues, such as PBMC or islet-derived CD8 T cells, were cloned into the pLVX-EFla lentiviral backbone (Takara) as a bicistronic TCRB-T2A-TCRa vector. TCRa/B/Jurkat J76 cells, which were engineered to express CD8 and a nuclear factor of activated T cells (NFAT)-green fluorescent protein (GFP) reporter (referred to as J76-CD8-NFAT-GFP), were transduced with lentiviral vectors produced from HEK 293T cells. To assess functional activity of the recombinant TCRs (rTCRs), J76-CD8-NFAT-GFP expressing recombinant TCRs were incubated at a 1:1 ratio with the HLA-A*02:01^+ T2(174×CEM.T2) (ATCC CRL-1991) lymphoblastic cell line, with a final concentration of 50 μM of cognate peptide (Vivitide, >95% pure) or 0.5% dimethylsulfoxide (DMSO, vehicle). Cell mixtures were incubated at 37° C., 5% CO2 for 16 hours. Activation of the T cells was assessed by flow cytometry using anti-CD3-PE-Cy7 (Clone UCHT1) and anti-CD69-APC (Clone FN50) antibodies, and analyzed using the Satorius iQue Screener Plus and FlowJo v10. Activation of rTCR-expressing cell lines was determined by comparing the mean percentage of CD69^+ cells out of CD3^+ cells, in cell mixtures with cognate peptide-loaded T2 cells, with the mean percentage in cell mixtures with no peptide (DMSO control).

[3] = tested on: islet-derived rTCR; experiment: Peptide dose-response of islet-derived rTCR expressed in Jurkat T cells; format: cell-based, human; details: Jurkat T cells expressing islet-derived rTCR, pulsed with 0.001 to 100 μM peptide; approximate affinity of pMHC-rTCR interaction; read-out: EC50 (half maximal effective concentration)
Method: FIG. 1 depicts a dose-response for the islet-derived rTCR described in Table 5 when pulsed with a range of cognate peptide from 0.001 to 100 μM.
This epitope bound to a single, high abundance TCR derived from an individual that was diagnosed with Type I diabetes 4 months prior to death. […] The EC50 value represents an approximate affinity for the pMHC-rTCR[…] interaction.
as §1, with “To assess functional activity of the recombinant TCRs (rTCRs), J76-CD8-NFAT-GFP expressing recombinant TCRs were incubated at a 1:1 ratio with the HLA-A*02:01^+ T2(174×CEM.T2) (ATCC CRL-1991) lymphoblastic cell line, with a final concentration of 50 μM of cognate peptide (Vivitide, >95% pure) or 0.5% dimethylsulfoxide (DMSO, vehicle). Cell mixtures were incubated at 37° C., 5% CO2 for 16 hours.” left out

[4] = tested on: pancreatic islet infiltrating T cells; experiment: Binding of pMHC library to polyclonally expanded islet-derived T cell lines from T1D organ donors; set-up: species or system human; details: single high abundance TCR
Description: This example describes assessment of peptides that bind to T cell lines derived from living pancreatic islets of recently deceased pancreatic organ donors with T1D, thereby to identify T1D-associated, HLA-A*02:01-restricted T cell epitopes directly associated with islet infiltrating T cells. This assay, using specialized post-mortem processing of difficult-to-obtain pancreas biopsy, further confirmed the association of selected epitopes with T1D, given that disease-associated T cell epitopes generally result in infiltration of T cells that can cause inflammation and subsequent beta cell cytotoxicity in the pancreas.
Briefly, pancreatic slices were sourced from individuals with suspected or confirmed Type I diabetes diagnosis at the time of death by the Network of Pancreatic Organ Donors. Within in 72 hours of death, pancreatic islets were macrodissected from the slices under sterile conditions. These islets were cultured with a cocktail of cytokines and immune stimulating factors that allow T cell expansion independent of cognate TCR-pMHC interaction, using the polyclonal T cell expansion method described in Babon et al., (2016) Nat Med 22:1482-1487. The resulting T cell lines were then screened against pMHC libraries described in Example 2.
This epitope bound to a single, high abundance TCR derived from an individual that was diagnosed with Type I diabetes 4 months prior to death. […]

| Sequence | Normalized T1D prevalence [1] | % Presence in T1D samples [1] [%] | also measured |
| --- | --- | --- | --- |
| MVWESGCVV | 16.313 | 100 | – |
| SVALWNNAV | 1.13 | 87.5 | – |
| TLSKPSPMPV | 1.06 | 87.5 | – |
| TLVTLCHYA | 1.94 | 87.5 | – |
| LLPPRVLPA | – | – | Mean % CD69+ T cells with cognate peptide ([2]; TCR_15, source PBMC): 32.25% |
| YAPWELLSV | 2.44 | 87.5 | Mean % CD69+ T cells with cognate peptide ([2]; TCR_05, source PBMC): 38.4%; Mean % CD69+ T cells with cognate peptide ([2]; TCR_13, source PBMC): 17.55% |
| KLSPSQHLA | 1.06 | 87.5 | – |
| ALMGQAAGV | 1.50 | 87.5 | – |
| KLNWDLHTA | 3.63 | 87.5 | – |
| KMAKDWKTV | 2.38 | 100 | Mean % CD69+ T cells with cognate peptide ([2]; TCR_12, source PBMC): 18.65% |
| TLMAVIGGL | 3.63 | 100 | – |
| FSESILTYV | 2.88 | 87.5 | – |
| VIGDWLNLI | 2.188 | 75 | Mean % CD69+ T cells with cognate peptide ([2]; TCR_09, source PBMC): 26.15%; Mean % CD69+ T cells with cognate peptide ([2]; TCR_18, source PBMC): 26.15%; Mean % CD69+ T cells with cognate peptide ([2]; TCR_19, source islet): 28.8%; EC50 [3]: 2.2 µM; Binding to islet-derived T cells from T1D patients [4]: identified as binding |
| FLPYDHARI | 2.94 | 87.5 | – |
| LQFRGSMLA | 2.00 | 100 | – |
| NLLYPVPLV | 2.81 | 87.5 | Mean % CD69+ T cells with cognate peptide ([2]; TCR_03, source PBMC): 49.75%; Mean % CD69+ T cells with cognate peptide ([2]; TCR_08, source PBMC): 27.25%; Mean % CD69+ T cells with cognate peptide ([2]; TCR_11, source PBMC): 21.65% |
| ALAWAVWLA | 1.94 | 87.5 | – |
| GQWAGGAYA | 1.81 | 87.5 | – |
| LMSGILGLA | 2.44 | 87.5 | – |
| VLVNKVLLV | 1.69 | 87.5 | Mean % CD69+ T cells with cognate peptide ([2]; TCR_10, source PBMC): 29.45% |
| QLLFSLPKL | – | – | Mean % CD69+ T cells with cognate peptide ([2]; TCR_16, source PBMC): 61.55% |
| TLDIFLEIV | – | – | Mean % CD69+ T cells with cognate peptide ([2]; TCR_17, source PBMC): 36.7% |
| FVAGLFVML | 1.88 | 87.5 | – |
| TLSWALYEL | 2.50 | 100 | Mean % CD69+ T cells with cognate peptide ([2]; TCR_01, source PBMC): 59.8%; Mean % CD69+ T cells with cognate peptide ([2]; TCR_02, source PBMC): 58%; Mean % CD69+ T cells with cognate peptide ([2]; TCR_04, source PBMC): 48%; Mean % CD69+ T cells with cognate peptide ([2]; TCR_06, source PBMC): 39%; Mean % CD69+ T cells with cognate peptide ([2]; TCR_07, source PBMC): 33.55%; Mean % CD69+ T cells with cognate peptide ([2]; TCR_14, source PBMC): 15.45% |
| VLQASSISA | 3.19 | 100 | – |
| FLSWALNSC | 2.50 | 100 | – |
| NLYTFVLKV | 2.56 | 87.5 | – |
| QALDVGWLV | 1.19 | 87.5 | – |
